In US20240174637A1, “DEGRADERS OF GRK2 AND USES THEREOF” (Sonata Therapeutics, Inc., priority 2021, published 2024):

Columns and labels:
GRK2 = target: T1, GRK2 (Homo sapiens, UniProt P25098); test: Second ADPGlo GRK2 Inhibition Assay (Example 3); type: biochemical; settings: ADP-Glo, 20 μM ATP; read-out: Second ADPGlo Enzymatic GRK2 Assay: IC50 (nM) (Example 3)
T1 sequence (P25098 1-689): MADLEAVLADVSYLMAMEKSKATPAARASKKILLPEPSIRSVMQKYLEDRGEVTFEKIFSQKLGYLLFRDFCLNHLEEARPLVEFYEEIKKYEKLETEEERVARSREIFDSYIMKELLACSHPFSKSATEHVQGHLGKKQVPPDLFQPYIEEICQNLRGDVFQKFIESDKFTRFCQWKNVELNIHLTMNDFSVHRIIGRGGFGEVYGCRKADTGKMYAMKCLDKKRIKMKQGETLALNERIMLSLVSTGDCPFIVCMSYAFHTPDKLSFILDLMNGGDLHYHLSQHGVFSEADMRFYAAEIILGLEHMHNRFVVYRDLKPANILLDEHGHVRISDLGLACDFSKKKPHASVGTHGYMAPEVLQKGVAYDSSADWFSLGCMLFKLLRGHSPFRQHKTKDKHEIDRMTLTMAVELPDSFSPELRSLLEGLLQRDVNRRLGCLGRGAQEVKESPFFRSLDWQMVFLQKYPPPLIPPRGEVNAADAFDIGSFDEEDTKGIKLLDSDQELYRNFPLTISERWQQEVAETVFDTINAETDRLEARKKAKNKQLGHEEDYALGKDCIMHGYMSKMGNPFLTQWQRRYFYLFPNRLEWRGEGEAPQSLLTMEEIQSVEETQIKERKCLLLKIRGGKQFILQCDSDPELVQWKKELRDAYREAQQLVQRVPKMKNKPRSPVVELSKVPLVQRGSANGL
Description: Assay: GRK2 (2 nM) was incubated with ATP (20 μM) and GRKtide (1.2 mg/mL) in 11 μL of assay buffer (see above) for 180 min at room temperature. Compounds were dissolved in 100% DMSO, serially diluted 3.16-fold from 100 μM with 10 concentration points and transferred as 100× into assay plate (final compounds concentration in the reaction plate from 1 μM).
Materials: GRK2 was purchased from SignalChem (Cat #A14-10G, Lot #X645-3). Substrate GRKtide was from SignalChem (Cat #G46-58, Lot #R339-6). ADP-Glo Kinase Assay from Promega (Cat #V9102). Assay buffer consisted of 20 mM HEPES (pH7.5), 20 mM MgCl2, 0.01% Tween-20, 0.05 mM DDT. 384-well white plates were from Corning (Cat #4513).
HTS protocol: Add 5.5 μL of 2× substrate-enzyme mix into all columns except of 1-2 and 24 of reaction plate. Spin 15 seconds at 200 g. Transfer 1 ul of compounds from the plate with serial dilutions (384 well plate with 22 uL of compound in columns 3-22/DMSO solution 1-2,23-24) to Dilution plate (384 well plate with 49 uL of buffer with 2×40 μM ATP). After mixing transfer 5.5 ul from Dilution plate to Reaction plate (to 5.5 μL of 2× substrate-enzyme mix). Spin 15 seconds at 200 g and incubate for 180 min at room temperature with sealing. Add 3 μL ADP-Glo reagent to all the wells. Spin 15 seconds at 200 g and incubate for 40 min at room temperature. Add 6 μL Detection solution to all the wells. Incubate for 30 min at room temperature. Read plate using ClarioStar Plus (BMG).
Data Analysis: Data were analyzed in GraphPad Prism 5.0.2. Each HTS plate contains compounds in columns 3-22, controls (enzyme, no compound) in column 23, and blanks (no enzyme) in columns 2. HTS percent inhibition was calculated for each compound from the signal in luminescence units and the mean of the plate controls and the mean of the plate blanks using the following equation: % Inhibition=100*(1-(signal-blank mean)/(control mean-blank mean)).

PAXF1657 EV = test: 7-day cellular proliferation assay (CellTiter-Glo), PAXF1657 EV; type: cell-based; settings: 168 h, 7-day, read-out: 7-day proliferation assay: IC50 GeoMean (uM) [Cell Line: PAXF1657 EV]
How it was run: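 500 cells/well, RPMI1640 + 10% H.I. FBS, adhered overnight at 37° C. Compound 10-pt dilution, 30 μM-0.0002 μM final, 0.3% DMSO. 3 d, media + compound replaced, further 4 d. Viability by CellTiter-Glo; untreated plates read at time of dosing.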

| Compound | IC50 (GRK2) [nM] | IC50 (PAXF1657 EV) [µM] |
| --- | --- | --- |
| Cc1ncsc1-c1ccc(CNC(=O)[C@@H]2C[C@@H](O)CN2C(=O)[C@@H](NC(=O)COCCOCCCCCCOc2cccc(CNC(=O)c3cccc(NCc4nnc(-c5ccncn5)n4C)c3)c2)C(C)(C)C)cc1 [Compound D101] | < 100 | < 1 |
| Cc1ncsc1-c1ccc(CNC(=O)[C@@H]2C[C@@H](O)CN2C(=O)[C@@H](NC(=O)COCCOCCOCCOCCOCCOCCCCCCOc2cccc(CNC(=O)c3cccc(NCc4nnc(-c5ccncn5)n4C)c3)c2)C(C)(C)C)cc1 [Compound D100] | < 100 | > 10 |
